From PubChem BioAssay (NCI)
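How tested: cells in 96-well plates exposed to compound for 48 hours at five concentrations. GI50 = concentration required for 50% inhibition of growth. TGI: concentration producing complete growth inhibition.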

Tests used:
Experiment in all cases: growth of human tumour cells (NCI), 48 h
[1] = system: 786-0 renal
[2] = system: A498 renal
[3] = system: A549 NSCLC
[4] = system: ACHN renal
[5] = system: BT-549 breast
[6] = system: CAKI-1 renal
[7] = system: CCRF-CEM leukemia
[8] = system: COLO 205 colon
[9] = system: DU-145 prostate
[10] = system: HCC-2998 colon
[11] = system: HCT-116 colon
[12] = system: HCT-15 colon
[13] = system: HL-60(TB) leukemia
[14] = system: HOP-62 NSCLC
[15] = system: HOP-92 NSCLC
[16] = system: HS 578T breast
[17] = system: HT29 colon
[18] = system: IGROV1 ovarian
[19] = system: K-562 leukemia
[20] = system: KM12 colon
[21] = system: LOX IMVI melanoma
[22] = system: M14 melanoma
[23] = system: MALME-3M melanoma
[24] = system: MCF7 breast
[25] = system: MDA-MB-231 breast
[26] = system: MDA-MB-435
[27] = system: MOLT-4 leukemia
[28] = system: NCI-H226 lung
[29] = system: NCI-H23 lung
[30] = system: NCI-H460 lung
[31] = system: NCI-H522 lung
[32] = system: NCI/ADR-RES ovarian
[33] = system: OVCAR-3 ovarian
[34] = system: OVCAR-4 ovarian
[35] = system: OVCAR-5 ovarian
[36] = system: OVCAR-8 ovarian
[37] = system: PC-3 prostate
[38] = system: RPMI-8226 leukemia
[39] = system: RXF 393 renal
[40] = system: SF-268 CNS
[41] = system: SF-295 CNS
[42] = system: SF-539 CNS
[43] = system: SK-MEL-2 melanoma
[44] = system: SK-MEL-28 melanoma
[45] = system: SK-MEL-5 melanoma
[46] = system: SK-OV-3 ovarian
[47] = system: SN12C renal
[48] = system: SNB-19 CNS
[49] = system: SNB-75 CNS
[50] = system: SR leukemia
[51] = system: SW-620 colon
[52] = system: T-47D breast
[53] = system: U251 CNS
[54] = system: UACC-257 melanoma
[55] = system: UACC-62 melanoma
[56] = system: UO-31 renal
[57] = system: EKVX NSCLC
[58] = system: TK-10 renal

O=C1Nc2ccccc2/C1=C/C(=N/c1nnc(-c2ccccc2)s1)c1ccccc1
GI50 [1]: 1.79 µM | TGI [1]: 3.55 µM | GI50 [2]: 6.78 µM | TGI [2]: 21 µM | GI50 [3]: 8.62 µM | TGI [3]: 23.6 µM | GI50 [4]: 1.56 µM | TGI [4]: 3 µM | GI50 [5]: 1.91 µM | TGI [5]: 3.96 µM | GI50 [6]: 2.58 µM | TGI [6]: 10.3 µM | GI50 [7]: 1.47 µM | TGI [7]: 4.72 µM | GI50 [8]: 1.68 µM | TGI [8]: 3.22 µM | GI50 [9]: 2.7 µM | TGI [9]: 7.77 µM | GI50 [10]: 8.58 µM | TGI [10]: 21.5 µM | GI50 [11]: 1.34 µM | TGI [11]: 2.92 µM | GI50 [12]: 1.63 µM | TGI [12]: 4.01 µM | GI50 [13]: 1.82 µM | TGI [13]: 5.33 µM | GI50 [14]: 6.05 µM | TGI [14]: 18 µM | GI50 [15]: 0.987 µM | TGI [15]: 2.93 µM | GI50 [16]: 2.71 µM | TGI [16]: 11.8 µM | GI50 [17]: 2.1 µM | TGI [17]: 5.37 µM | GI50 [18]: 2.13 µM | TGI [18]: 5.94 µM | GI50 [19]: 1.69 µM | TGI [19]: 11 µM | GI50 [20]: 5.5 µM | TGI [20]: 17.9 µM | GI50 [21]: 1.61 µM | TGI [21]: 3.21 µM | GI50 [22]: 3.87 µM | TGI [22]: 14.3 µM | GI50 [23]: 2.17 µM | TGI [23]: 6.67 µM | GI50 [24]: 2.28 µM | TGI [24]: 11.3 µM | GI50 [25]: 1.92 µM | TGI [25]: 4.95 µM | GI50 [26]: 2.96 µM | TGI [26]: 9.32 µM | GI50 [27]: 2.23 µM | TGI [27]: 6.54 µM | GI50 [28]: 2.5 µM | TGI [28]: 8.28 µM | GI50 [29]: 2.88 µM | TGI [29]: 11 µM | GI50 [30]: 7.04 µM | TGI [30]: 21.9 µM | GI50 [31]: 0.449 µM | TGI [31]: 1.06 µM | GI50 [32]: 3.1 µM | TGI [32]: 10.3 µM | GI50 [33]: 1.38 µM | TGI [33]: 2.8 µM | GI50 [34]: 2.63 µM | TGI [34]: 12.2 µM | GI50 [35]: 2.09 µM | TGI [35]: 6.63 µM | GI50 [36]: 2.77 µM | TGI [36]: 9.35 µM | GI50 [37]: 2 µM | TGI [37]: 5.52 µM | GI50 [38]: 2.14 µM | TGI [38]: 5.21 µM | GI50 [39]: 1.51 µM | TGI [39]: 3.1 µM | GI50 [40]: 4.3 µM | TGI [40]: 16.1 µM | GI50 [41]: 17.1 µM | TGI [41]: 32.7 µM | GI50 [42]: 1.99 µM | TGI [42]: 4.64 µM | GI50 [43]: 2.55 µM | TGI [43]: 7.07 µM | GI50 [44]: 2.68 µM | TGI [44]: 6.93 µM | GI50 [45]: 6.57 µM | TGI [45]: 17.9 µM | GI50 [46]: 6.62 µM | TGI [46]: 19.1 µM | GI50 [47]: 2.07 µM | TGI [47]: 5.69 µM | GI50 [48]: 12.3 µM | TGI [48]: 25 µM | GI50 [49]: 3.7 µM | TGI [49]: 16.9 µM | GI50 [50]: 0.957 µM | TGI [50]: 6.76 µM | GI50 [51]: 1.2 µM | TGI [51]: 2.74 µM | GI50 [52]: 2.45 µM | TGI [52]: 10.1 µM | GI50 [53]: 4.91 µM | TGI [53]: 17.7 µM | GI50 [54]: 3.81 µM | TGI [54]: 10.6 µM | GI50 [55]: 1.72 µM | TGI [55]: 3.74 µM | GI50 [56]: 1.45 µM | TGI [56]: 3.31 µM

C=C(C)C(=O)Oc1ccc(N=Nc2ccc(C)cc2)ccc1=O
GI50 [1]: 4.96 µM | TGI [1]: 17.8 µM | GI50 [2]: 3.72 µM | TGI [2]: 14.6 µM | GI50 [3]: 3.81 µM | TGI [3]: 18.3 µM | GI50 [4]: 3.96 µM | TGI [4]: 15.8 µM | GI50 [5]: 6.63 µM | TGI [5]: 21.3 µM | GI50 [6]: 2.26 µM | TGI [6]: 5.6 µM | GI50 [7]: 2.24 µM | TGI [7]: 9.36 µM | GI50 [8]: 3.58 µM | TGI [8]: 14.6 µM | GI50 [9]: 4.36 µM | TGI [9]: 15.8 µM | GI50 [57]: 2.32 µM | TGI [57]: 8.76 µM | GI50 [10]: 3.74 µM | TGI [10]: 14 µM | GI50 [11]: 2.98 µM | TGI [11]: 10.5 µM | GI50 [12]: 3.55 µM | TGI [12]: 18.5 µM | GI50 [13]: 2.39 µM | TGI [13]: 7.04 µM | GI50 [14]: 3.78 µM | TGI [14]: 14.9 µM | GI50 [15]: 3.64 µM | TGI [15]: 16.1 µM | GI50 [16]: 4.33 µM | TGI [16]: 24.3 µM | GI50 [17]: 4.28 µM | TGI [17]: 15.1 µM | GI50 [18]: 2.54 µM | TGI [18]: 9.15 µM | GI50 [19]: 3.36 µM | TGI [19]: 13.6 µM | GI50 [20]: 3.51 µM | TGI [20]: 13.5 µM | GI50 [21]: 2.72 µM | TGI [21]: 11.4 µM | GI50 [22]: 3.21 µM | TGI [22]: 12.7 µM | GI50 [24]: 3.66 µM | TGI [24]: 14.7 µM | GI50 [25]: 4.84 µM | TGI [25]: 22 µM | GI50 [26]: 2.77 µM | TGI [26]: 11.2 µM | GI50 [27]: 2.57 µM | TGI [27]: 8.18 µM | GI50 [28]: 3.57 µM | TGI [28]: 18.6 µM | GI50 [29]: 4.52 µM | TGI [29]: 17.8 µM | GI50 [30]: 2.85 µM | TGI [30]: 10.2 µM | GI50 [31]: 4.95 µM | TGI [31]: 18.1 µM | GI50 [32]: 3.14 µM | TGI [32]: 11.4 µM | GI50 [33]: 2.09 µM | TGI [33]: 8.13 µM | GI50 [34]: 3.63 µM | TGI [34]: 14.4 µM | GI50 [35]: 8.26 µM | TGI [35]: 21.8 µM | GI50 [36]: 3.15 µM | TGI [36]: 10.9 µM | GI50 [37]: 5.54 µM | TGI [37]: 24.4 µM | GI50 [38]: 3.73 µM | TGI [38]: 17.8 µM | GI50 [39]: 3.93 µM | TGI [39]: 14.8 µM | GI50 [40]: 2.62 µM | TGI [40]: 11.2 µM | GI50 [41]: 1.66 µM | TGI [41]: 4.66 µM | GI50 [42]: 5.17 µM | TGI [42]: 18.1 µM | GI50 [43]: 8.31 µM | TGI [43]: 28.6 µM | GI50 [44]: 3.39 µM | TGI [44]: 11.7 µM | GI50 [45]: 4 µM | TGI [45]: 15.2 µM | GI50 [46]: 4.72 µM | TGI [46]: 27.7 µM | GI50 [47]: 3.89 µM | TGI [47]: 18.5 µM | GI50 [48]: 3.68 µM | TGI [48]: 21.8 µM | GI50 [49]: 2.66 µM | TGI [49]: 10.3 µM | GI50 [50]: 2.47 µM | TGI [50]: 8.28 µM | GI50 [51]: 3.16 µM | TGI [51]: 13.4 µM | GI50 [52]: 3.14 µM | TGI [52]: 14.7 µM | GI50 [58]: 10.7 µM | TGI [58]: 82.4 µM | GI50 [53]: 3.11 µM | TGI [53]: 12.7 µM | GI50 [54]: 2.99 µM | TGI [54]: 13 µM | GI50 [55]: 1.95 µM | TGI [55]: 4.42 µM | GI50 [56]: 2.55 µM | TGI [56]: 8.38 µM
